# Data as given in patent US20250302720A1, “PEPTIDE-BASED HAIR TREATMENT” (Sederma, priority 2020, published 2025).
# Residues, ends and D or L forms follow the SMILES beside them.
# Key:
# [1] = system: reduced glutathione (GSH); test: Reduced glutathione of the NHM (fluorescent probe); assay type: cell-based, human; conditions: 24 h, vs control
# Experimental: NHM almost at confluence are brought into contact with the peptide according to the invention for 24 hours. After this contact, the cells are broken in an extraction buffer that preserves glutathione. The amount of GSH is determined by a specific fluorescent probe.
# [2] = system: melanocyte dendrites (NHM); test: Length of melanocyte dendrites (antibody labelling, image analysis); assay type: cell-based, human; conditions: 48 hours, vs control, n = 3
# Experimental: The cells are brought into contact with the peptide according to the invention for 48 hours. Then the melanocyte layers, once rinsed, are labeled using an antibody. The area occupied by the dendrites are obtain by image analysis on the photos taken, a parameter converted into the relative dendrite length/100 cells. At the same time, the cell nuclei are counterstained using Hoescht 33258 fluorescent dye to estimate the cell number and to harmonize the data.
# [3] = system: Normal human keratinocytes (NHK); test: Microbead (melanosome mimic) phagocytosis by keratinocytes; assay type: cell-based; conditions: 24 hours then microbeads 3 hours, vs control
# Experimental: Normal human keratinocytes (NHK) are seeded and cultured until a mat of confluent cells is obtained. The cells are brought into contact with the peptide according to the invention for 24 hours and a solution of fluorescent microbeads mimicking the melanosomes of the melanocyte is added for 3 hours. The beads are phagocytosed (ingested) by the keratinocytes and quantified, after rinsing, by image analysis. In parallel, the cell nuclei are counterstained using the Hoescht33258 fluorescent dye to estimate the cell quantity and to harmonize the data.
# [4] = system: Normal human skin melanocytes (NHM); test: Melanin production by NHM after 10 days; assay type: cell-based; conditions: vs control, n = 4
# Experimental: Normal human skin melanocytes (NHM), little or moderately melanin producing are used. These cells are cultured and brought into contact for 10 days with the peptide according to the invention at different concentrations or with its solvent in equivalent concentration (control). Culture media are changed every 2-3 days. After this contact, the cell mats are crushed, and the melanin is extracted from the cells. The melanin quantity is evaluated spectrophotometrically at 490 nm, using a standard range previously established from a melanin solution. Protein assay using the Bicinchoninic Acid (BCA) method is used to estimate the cell quantity to homogenize the obtained data.
# tyrosinase = test: Tyrosinase (dopa-oxidase) activity extracted from NHM after 10 days; assay type: cell-based, human; conditions: vs control, n = 4
# Experimental: The same culture and contact protocol as above are used with the melanocytes of two different donors with regard to their production of melanin (moderately and poorly pigmented).
# After contact, the tyrosinase was extracted from the cells and its dopa-oxidase activity is assessed using the substrate L-DOPA at 37° C. The absorbance due to the production of Dopaquinone is measured at 490 nm and converted to activity units using a preset range. A protein assay using the Bicinchoninic Acid (BCA) method is used to estimate cell quantity and thus to homogenize the obtained data.
# MITF = test: Expression of melanogenesis genes in NHM (qRTPCR): MITF; assay type: cell-based, human; conditions: 72 h, vs control, n = 4
# Experimental: (§1) NHM are cultivated and brought into contact with the peptide according to the invention or its solvent. At the end of 72 h of contact, the melanocytes are crushed, and the mRNAs are recovered, converted into cDNA which are analyzed by qRTPCR, to estimate the changes in the expression level of the mRNAs. The expression of the following genes has been studied: MITF, TYRP1 and CREB.
# TYRP1 = test: Expression of melanogenesis genes in NHM (qRTPCR): TYRP1; assay type: cell-based, human; conditions: 72 h, vs control, n = 4
# Experimental: as §1
# CREB = test: Expression of melanogenesis genes in NHM (qRTPCR): CREB; assay type: cell-based, human; conditions: 72 h, vs control, n = 4
# Experimental: as §1
# [5] = system: hair follicles (bulb) from a scalp plasty; test: Melanin production in the bulb of isolated hair follicles kept in survival for 8 days; assay type: cell-based, human; conditions: 10 ppm
# Experimental: Follicles comprising their bulb with little pigment and isolated from a scalp plasty (resulting from cosmetic surgery— donor, dark blond; person) are placed individually in the wells of a culture plate containing the culture medium and maintained for survival (37° C.; 5% CO2).
# Twelve follicles are reserved for T0 to serve as a reference for visual estimation and quantification of pigmentation but also for subsequent labeling of MC1R and MITF by immunohistology (six follicles for each marker).
# Twelve follicles are placed in contact with the peptide according to the invention at 10 ppm in its solvent and twelve others in contact with the solvent alone for 8 days (0.1% DMSO in culture medium). At 8 days, all the follicles are stopped and fixed, then sectioned (7 μm) and marked with alunated carmine and photographed under a microscope. Sections of 6 of them (for each group) are used for visual and quantitative assessment by image analysis of their pigmentation (with specific filter to measure melanin). Sections of the other 6 are used for MC1R and MITF scoring, which is to be assessed by visual estimation.
# [6] = system: white and non-white hairs of volunteers; test: In-vivo non-white/white hair ratio by TrichoScan micro-photos; parameters: species or system human; conditions: lotion 90 ppm, 18 volunteers, temples, T 4 m
# Experimental: (§2) The in-vivo tests were carried out by applying the hair lotion described above in point 1) in the Galenic part. This lotion comprises 90 ppm of the peptide of the invention. Four independent studies were conducted with a total of 84 volunteers (average age of the entire panel of selected volunteers was 42 years). All four studies were conducted over a wide range of geographical locations, times, seasons, application sites, phototypes and methods. The details are specified in the below table.
# Only one study (at site 2) used this technology (a new tool for analyzing hair growth) which has the advantage of providing data on a very small area and seeing the hair individually. The scalp area is identified and shaved a few days before the photo, and this at different times. Widely used for the study of hair loss, with this technology, thanks to its high magnification, it is also possible to work on hair coloring. The TrichoScan® system includes an epiluminescence microcamera system.
# 2.4—Evaluation of the Number of White Hairs and Non-White Hairs The TrichoScan® software was used to determine the number of white hairs, the number of black hairs and the calculation of the black/white ratio. This ratio increases with the number of dark hairs when the treatment acts.
# [7] = In-vivo tolerance: adverse effects reported by the volunteers; parameters: species or system human
# Experimental: as §2
# [8] = 5 ppm, poorly pigmented (§§) NHM
# [9] = 10 ppm, moderately pigmented (§) NHM
# [10] = 10 ppm, poorly pigmented (§§) NHM
structure (smiles),measurement,setting,value
"CCCCCCCCCCCCCCCC(=O)N1CCC[C@H]1C(=O)N1CCC[C@H]1C(=O)O [Pal-PP-OH, palmitoyl-prolyl-proline] (HELM PEPTIDE1{[CCCCCCCCCCCCCCCC(=O)[*:2]].P.P}$$$$V2.0)","Reduced glutathione concentration, Variation (%)","[1]; 10 ppm, n = 6",+28%; p < 0.05
same,"Reduced glutathione concentration, Variation (%)","[1]; 12.5 ppm, n = 6",+38%; p < 0.01
same,"Reduced glutathione concentration, Variation (%)","[1]; 12.5 ppm, n = 6, listed as peptide of the invention",+38%
same,"Lenght of the dendrites, Variation (%)",[2]; 5 ppm,+20%; p < 0.01
same,"Lenght of the dendrites, Variation (%)",[2]; 10 ppm,+33%; p < 0.01
same,"Lenght of the dendrites, Variation (%)",[2]; 15 ppm,+57%; p < 0.01
same,"Number of microbeads per image analysis, Variation (%)","[3]; 5 ppm, n = 3",+50%; p < 0.05
same,"Number of microbeads per image analysis, Variation (%)","[3]; 10 ppm, n = 3",+283%; p < 0.01
same,"Number of microbeads per image analysis, Variation (%)","[3]; 10 ppm, n = 3, listed as peptide according to the invention",+283%
same,"Melanin concentration, Variation (%)","[4]; 5 ppm, moderately pigmented (§) NHM",+48%; p < 0.01
same,"Melanin concentration, Variation (%)",[4]; [8],+4%; nsd
same,"Melanin concentration, Variation (%)",[4]; [9],+123%; p < 0.01
same,"Melanin concentration, Variation (%)",[4]; [10],+81%; p < 0.01
same,"Melanin concentration, Variation (%)","[4]; 12.5 ppm, moderately pigmented (§) NHM",+223%; p < 0.01
same,"Melanin concentration, Variation (%)","[4]; 12.5 ppm, poorly pigmented (§§) NHM",+113%; p < 0.01
same,"Tyrosinase activity, Variation (%)",tyrosinase; [8],+15%; p < 0.05
same,"Tyrosinase activity, Variation (%)","tyrosinase; 7 ppm, moderately pigmented (§) NHM",+14%; p < 0.01
same,"Tyrosinase activity, Variation (%)",tyrosinase; [9],+27%; p < 0.01
same,"Tyrosinase activity, Variation (%)",tyrosinase; [10],+74%; p < 0.01
same,variation in the expression of MITF gene,MITF; 10 ppm,+39%; p < 0.01
same,variation in the expression of MITF gene,MITF; 12.5 ppm,+42%; p < 0.01
same,variation in the expression of TYRP1 gene,TYRP1; 10 ppm,+42%; p < 0.01
same,variation in the expression of TYRP1 gene,TYRP1; 12.5 ppm,+54%; p < 0.01
same,variation in the expression of CREB gene,CREB; 10 ppm,+46%; p < 0.01
same,variation in the expression of CREB gene,CREB; 12.5 ppm,+56%; p < 0.01
same,"dark pixels corresponding to the deposition of melanin, vs control follicles",[5]; 6 follicles,11.6 times
same,"Melanin, Quantification by image analysis; % area occupied by black pixels","[5]; follicle bulb, vs control, n = 6 follicles",×11.6; p < 0.01
same,"non-white/white hair Ratio, Maximum (variation)",[6],+385%
same,"non-white/white hair Ratio, Mean",[6],2.56
same,"non-white/white hair Ratio, respondents",[6],72%
same,"non-white/white hair Ratio, % Variation vs. T0",[6]; listed as peptide according to the invention,approximately +27.4%
same,"non-white/white hair Ratio, % Variation vs. T0",[6]; listed as peptide of the invention,+27.4%
same,negative feedbacks,[7]; 3 months after the last application,no negative feedbacks
same,adverse effects,"[7]; lotion 90 ppm, at 3 or 4 months",No adverse effects were reported
